Laboratory results from patent US20260258035A1, “FIVE-MEMBERED AND SIX-MEMBERED NITROGEN-CONTAINING COMPOUND, AND INTERMEDIATE, PREPARATION METHOD AND USE THEREOF” (HANGZHOU SYNRX THERAPEUTICS BIOMEDICAL TECHNOLOGY CO., LTD., priority 2022, published 2026).

Target: PARG (Homo sapiens, UniProt Q86W56)
Test: Biochemical assay (PARG, TFMU-ADPr substrate)
[1] = 4 nM PARG, 66.2 uM TFMU-ADPr, 3 min at room temperature

PARG, sequence (Q86W56 whole entry): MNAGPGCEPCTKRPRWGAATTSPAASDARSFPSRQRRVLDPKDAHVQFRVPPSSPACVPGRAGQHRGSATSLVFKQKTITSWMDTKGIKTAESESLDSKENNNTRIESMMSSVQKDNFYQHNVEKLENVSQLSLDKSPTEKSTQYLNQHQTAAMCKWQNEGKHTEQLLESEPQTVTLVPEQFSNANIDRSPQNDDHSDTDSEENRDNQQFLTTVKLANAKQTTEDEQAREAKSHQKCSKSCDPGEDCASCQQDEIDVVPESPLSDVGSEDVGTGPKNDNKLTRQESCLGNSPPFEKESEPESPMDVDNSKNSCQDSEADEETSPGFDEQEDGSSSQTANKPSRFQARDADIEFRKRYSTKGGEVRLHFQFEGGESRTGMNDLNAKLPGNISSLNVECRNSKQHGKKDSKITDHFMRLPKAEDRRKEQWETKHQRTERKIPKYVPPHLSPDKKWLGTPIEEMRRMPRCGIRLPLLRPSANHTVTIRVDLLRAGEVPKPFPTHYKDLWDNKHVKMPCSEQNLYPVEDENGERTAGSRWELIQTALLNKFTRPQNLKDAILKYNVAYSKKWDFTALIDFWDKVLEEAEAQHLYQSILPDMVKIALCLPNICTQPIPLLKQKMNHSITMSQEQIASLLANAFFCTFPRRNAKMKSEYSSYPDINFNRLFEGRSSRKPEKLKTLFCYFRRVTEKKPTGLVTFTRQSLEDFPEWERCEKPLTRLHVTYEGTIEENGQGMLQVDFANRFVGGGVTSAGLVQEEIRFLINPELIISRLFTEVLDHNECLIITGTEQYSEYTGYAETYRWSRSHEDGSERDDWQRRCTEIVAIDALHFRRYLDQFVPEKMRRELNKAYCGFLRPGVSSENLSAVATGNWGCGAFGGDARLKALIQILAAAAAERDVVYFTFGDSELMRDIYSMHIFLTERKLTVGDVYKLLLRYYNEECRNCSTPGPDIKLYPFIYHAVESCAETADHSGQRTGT

| SMILES | IC50 [1] [nM] | IC50 (PARG, TFMU-ADPr substrate) [nM] |
| --- | --- | --- |
| Cc1ncc2n1CCN(c1cc(S(=O)(=O)NC3(C#N)CC3)cn3c(-c4nnc(C(F)F)s4)ncc13)C2 [Example 44, N-(1-cyanocyclopropyl)-3-(5-(difluoromethyl)-1,3,4-thiadiazol-2-yl)-8-(3-methyl-5,6-dihydroimidazo[1,5-a]pyrazin-7(8H)-yl)imidazo[1,5-a]pyridine-6-sulfonamide] | < 100 | 10.7 |
| CC(N1CCN(c2cc(S(=O)(=O)NC3(C#N)CC3)cn3c(-c4nnc(C(F)F)s4)ncc23)C[C@H]1C)C(F)(F)F (stereo partly drawn) [Example 83, N-(1-cyanocyclopropyl)-3-(5-(difluoromethyl)-1,3,4-thiadiazol-2-yl)-8-((3R)-3-methyl-4-(1,1,1-trifluoropropan-2-yl)piperazin-1-yl)imidazo[1,5-a]pyridine-6-sulfonamide] | 100 to 500 | 347 |
| C[C@H]1CN(c2cc(S(=O)(=O)NC3(C)COC3)cn3c(-c4nnc(C(F)(F)F)s4)nc(Cl)c23)C[C@H](C)O1 [Example 134, 1-chloro-8-((2S,6S)-2,6-dimethylmorpholino)-N-(3-methyloxetan-3-yl)-3-(5-(trifluoromethyl)-1,3,4-thiadiazol-2-yl)imidazo[1,5-a]pyridine-6-sulfonamide] |  | 69.2 |
| Cc1cnc(-c2cnc3c(N4CCN(C(=O)C(C)C)CC4)cc(S(=O)(=O)NC4(C#N)CC4)cn23)s1 [Example 3, N-(1-cyanocyclopropyl)-8-(4-isobutyrylpiperazin-1-yl)-3-(5-methylthiazol-2-yl)imidazo[1,2-a]pyridine-6-sulfonamide] |  | 33.1 |
| N#CC1(NS(=O)(=O)c2cc(NC3CCC(OC(F)(F)F)C3)c3cnc(-c4nnc(C(F)F)s4)n3c2)CC1 (stereo not drawn) [Example 151, N-(1-cyanocyclopropyl)-3-(5-(difluoromethyl)-1,3,4-thiadiazol-2-yl)-8-((3-(trifluoromethoxy)cyclopentyl)amino)imidazo[1,5-a]pyridine-6-sulfonamide] | 100 to 500 | 178 |
| N#CC1(NS(=O)(=O)c2cc(N3CCN(C(=O)C4CNCCN4)CC3)c3cnc(-c4nnc(C(F)(F)F)s4)n3c2)CC1 (stereo not drawn) [Example 280, N-(1-cyanocyclopropyl)-8-(4-(piperazine-2-carbonyl)piperazin-1-yl)-3-(5-(trifluoromethyl)-1,3,4-thiadiazol-2-yl)imidazo[1,5-a]pyridine-6-sulfonamide] |  | 45.7 |
| CC(C)C(=O)N1CCN(c2cc(S(=O)(=O)NC(C3CC3)C(F)(F)F)cn3c(-c4nnc(C(F)F)s4)ncc23)CC1 (stereo not drawn) [Example 36, N-(1-cyclopropyl-2,2,2-trifluoroethyl)-3-(5-(difluoromethyl)-1,3,4-thiadiazol-2-yl)-8-(4-isobutyrylpiperazin-1-yl)imidazo[1,5-a]pyridine-6-sulfonamide] | 500 to 1000 | 649 |
| CC(C)C(=O)N1CCN(c2cc(S(=O)(=O)N[C@H]3C[C@@H]3F)cn3c(-c4nnc(C(F)F)s4)ncc23)CC1 [Example 81, 3-(5-(difluoromethyl)-1,3,4-thiadiazol-2-yl)-N-((1S,2S)-2-fluorocyclopropyl)-8-(4-isobutyrylpiperazin-1-yl)imidazo[1,5-a]pyridine-6-sulfonamide] | > 1000 |  |
| C=CC(=O)N1CC=C(c2cnc3c(N4CCN(C(=O)C(C)C)CC4)cc(S(=O)(=O)NC4(C#N)CC4)cn23)C1 [Example 18, 3-(1-acryloyl-2,5-dihydro-1H-pyrrol-3-yl)-N-(1-cyanocyclopropyl)-8-(4-isobutyrylpiperazin-1-yl)imidazo[1,2-a]pyridine-6-sulfonamide] | < 100 | 40 |
| N#CC1(NS(=O)(=O)c2cc(N3CCC(F)(CO)CC3)c3cnc(-c4nnc(C(F)F)s4)n3c2)CC1 [Example 90, N-(1-cyanocyclopropyl)-3-(5-(difluoromethyl)-1,3,4-thiadiazol-2-yl)-8-(4-fluoro-4-(hydroxymethyl)piperidin-1-yl)imidazo[1,5-a]pyridine-6-sulfonamide] | < 100 | 34.7 |
| N#CC1(NS(=O)(=O)c2cc(N3CCC(OCC(F)(F)F)CC3)c3cnc(-c4nnc(C(F)F)s4)n3c2)CC1 [Example 47, N-(1-cyanocyclopropyl)-3-(5-(difluoromethyl)-1,3,4-thiadiazol-2-yl)-8-(4-(2,2,2-trifluoroethoxy)piperidin-1-yl)imidazo[1,5-a]pyridine-6-sulfonamide] | < 100 | 5.91 |
| N#CC1(NS(=O)(=O)c2cc(N3CCC(O)C3)c3cnc(-c4nnc(C(F)F)s4)n3c2)CC1 (stereo not drawn) [Example 42, N-(1-cyanocyclopropyl)-3-(5-(difluoromethyl)-1,3,4-thiadiazol-2-yl)-8-(3-hydroxypyrrolidin-1-yl)imidazo[1,5-a]pyridine-6-sulfonamide] | < 100 | 18 |
| C=CC(=O)N1CCC(c2cnc3c(N4CCN(C(=O)C(C)C)CC4)cc(S(=O)(=O)NC4(C#N)CC4)cn23)C1 (stereo not drawn) [Example 19, 3-(1-acryloylpyrrolidin-3-yl)-N-(1-cyanocyclopropyl)-8-(4-isobutyrylpiperazin-1-yl)imidazo[1,2-a]pyridine-6-sulfonamide] |  | 7240 |
| CC(=O)N1CC2(CC=C(c3cc(S(=O)(=O)NC4(C#N)CC4)cn4c(-c5nnc(C(F)F)s5)cnc34)C2)C1 [Example 13, 8-(2-acetyl-2-azaspiro[3.4]oct-6-en-6-yl)-N-(1-cyanocyclopropyl)-3-(5-(difluoromethyl)-1,3,4-thiadiazol-2-yl)imidazo[1,2-a]pyridine-6-sulfonamide] | < 100 | 10.9 |
| N#CC1(NS(=O)(=O)c2cc(-c3ccc4c(c3)CCO4)c3cnc(-c4nnc(C(F)F)s4)n3c2)CC1 [Example 140, N-(1-cyanocyclopropyl)-3-(5-(difluoromethyl)-1,3,4-thiadiazol-2-yl)-8-(2,3-dihydrobenzofuran-5-yl)imidazo[1,5-a]pyridine-6-sulfonamide] | < 100 | 26.2 |
| N#CC1(NS(=O)(=O)c2cc(-c3ccc(OC(F)(F)F)cc3)c3cnc(-c4nnc(C(F)F)s4)n3c2)CC1 [Example 141, N-(1-cyanocyclopropyl)-3-(5-(difluoromethyl)-1,3,4-thiadiazol-2-yl)-8-(4-(trifluoromethoxy)phenyl)imidazo[1,5-a]pyridine-6-sulfonamide] | 100 to 500 | 280 |
| C=CC(=O)N1CC=C(c2cnc3c(N4CCN(C(=O)C(C)C)CC4)cc(S(=O)(=O)NC4(C#N)CC4)cn23)CC1 [Example 21, 3-(1-acryloyl-1,2,3,6-tetrahydropyridin-4-yl)-N-(1-cyanocyclopropyl)-8-(4-isobutyrylpiperazin-1-yl)imidazo[1,2-a]pyridine-6-sulfonamide] |  | 912 |
| CCC(=O)N1CC=C(c2cnc3c(N4CCN(C(=O)C(C)C)CC4)cc(S(=O)(=O)NC4(C#N)CC4)cn23)C1 [Example 20, N-(1-cyanocyclopropyl)-8-(4-isobutyrylpiperazin-1-yl)-3-(1-propionyl-2,5-dihydro-1H-pyrrol-3-yl)imidazo[1,2-a]pyridine-6-sulfonamide] | < 100 | 178 |
| CC1(O)CCN(c2cc(S(=O)(=O)NC3(C)CC3)cn3c(-c4nnc(C(F)F)s4)nnc23)CC1 [Example 116, 3-(5-(difluoromethyl)-1,3,4-thiadiazol-2-yl)-8-(4-hydroxy-4-methylpiperidin-1-yl)-N-(1-methylcyclopropyl)-[1,2,4]triazolo[4,3-a]pyridine-6-sulfonamide] | < 100 | 50 |
| N#CC1(NS(=O)(=O)c2cc(N3CCC(OC(F)(F)F)CC3)c3cnc(-c4nnc(C(F)F)s4)n3c2)CC1 [Example 48, N-(1-cyanocyclopropyl)-3-(5-(difluoromethyl)-1,3,4-thiadiazol-2-yl)-8-(4-(trifluoromethoxy)piperidin-1-yl)imidazo[1,5-a]pyridine-6-sulfonamide] | < 100 | 13.2 |
| Cc1ncc(-c2cnn3c(N4CCN(C(=O)C(C)C)CC4)cc(S(=O)(=O)NC4(C#N)CC4)cc23)s1 [Example 28, N-(1-cyanocyclopropyl)-7-(4-isobutyrylpiperazin-1-yl)-3-(2-methylthiazol-5-yl)pyrazolo[1,5-a]pyridine-5-sulfonamide] | < 100 | 33 |
| N#CC1(NS(=O)(=O)c2cc(N3CC4COCC4C3)c3cnc(-c4nnc(C(F)F)s4)n3c2)CC1 (stereo not drawn) [Example 79, N-(1-cyanocyclopropyl)-3-(5-(difluoromethyl)-1,3,4-thiadiazol-2-yl)-8-(tetrahydro-1H-furo[3,4-c]pyrrol-5(3H)-yl)imidazo[1,5-a]pyridine-6-sulfonamide] | < 100 | 52.5 |
| C[C@@H]1CN(c2cc(S(=O)(=O)NC3(C#N)CC3)cn3c(-c4nnc(C(F)F)s4)ncc23)[C@@H](C)CN1C(=O)C1(C)CC1 [Example 93, N-(1-cyanocyclopropyl)-3-(5-(difluoromethyl)-1,3,4-thiadiazol-2-yl)-8-((2S,5R)-2,5-dimethyl-4-(1-methylcyclopropane-1-carbonyl)piperazin-1-yl)imidazo[1,5-a]pyridine-6-sulfonamide] | < 100 | 75.9 |
| CC1(O)CCN(c2cc(S(=O)(=O)NC3(CF)COC3)cn3c(-c4nnc(C(F)F)s4)ncc23)CC1 [Example 73, 3-(5-(difluoromethyl)-1,3,4-thiadiazol-2-yl)-N-(3-(fluoromethyl)oxetan-3-yl)-8-(4-hydroxy-4-methylpiperidin-1-yl)imidazo[1,5-a]pyridine-6-sulfonamide] | < 100 | 41.7 |
| CC(C)C(=O)N1CCN(c2cc(S(=O)(=O)NC3(COC(F)(F)F)CC3)cn3c(-c4nnc(C(F)F)s4)ncc23)CC1 [Example 49, 3-(5-(difluoromethyl)-1,3,4-thiadiazol-2-yl)-8-(4-isobutyrylpiperazin-1-yl)-N-(1-((trifluoromethoxy)methyl)cyclopropyl)imidazo[1,5-a]pyridine-6-sulfonamide] | < 100 | 38.4 |
| Cc1nnc(-c2cnc3c(N4CCN(C(=O)C(C)C)CC4)cc(S(=O)(=O)NC4(C#N)CC4)cn23)s1 [Example 2, N-(1-cyanocyclopropyl)-8-(4-isobutyrylpiperazin-1-yl)-3-(5-methyl-1,3,4-thiadiazol-2-yl)imidazo[1,2-a]pyridine-6-sulfonamide] |  | 2100 |
